Assay results from ChEMBL document CHEMBL1136540, “Discovery of selective phosphonamide-based inhibitors of tumor necrosis factor-alpha converting enzyme (TACE)” (Bioorg Med Chem Lett, 2003).

Columns and labels:
Stromelysin-1 [1] = target: T1, Stromelysin-1 (Homo sapiens, UniProt P08254); assay: Inhibition of recombinant human Matrix metalloprotease-3
Target sequence in this assay (P08254 whole entry, the tested form may be a part): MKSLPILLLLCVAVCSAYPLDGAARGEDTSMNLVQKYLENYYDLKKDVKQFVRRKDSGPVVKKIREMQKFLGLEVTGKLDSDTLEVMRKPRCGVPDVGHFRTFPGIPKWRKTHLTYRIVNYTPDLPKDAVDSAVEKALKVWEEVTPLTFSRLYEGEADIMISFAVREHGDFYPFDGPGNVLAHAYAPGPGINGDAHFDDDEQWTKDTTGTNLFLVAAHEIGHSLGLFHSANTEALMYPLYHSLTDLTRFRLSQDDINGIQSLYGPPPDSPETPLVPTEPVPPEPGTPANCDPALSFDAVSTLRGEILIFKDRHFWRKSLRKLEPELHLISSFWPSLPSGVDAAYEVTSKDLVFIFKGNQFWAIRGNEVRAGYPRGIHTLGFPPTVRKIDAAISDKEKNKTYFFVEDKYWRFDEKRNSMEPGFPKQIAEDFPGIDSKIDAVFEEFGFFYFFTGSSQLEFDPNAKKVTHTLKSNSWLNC

[2] = target: T2, Disintegrin and metalloproteinase domain-containing protein 17 (Homo sapiens, UniProt P78536); assay: Inhibition of recombinant human tumor necrosis factor-alpha converting enzyme
T2 sequence (P78536 whole entry, the tested form may be a part): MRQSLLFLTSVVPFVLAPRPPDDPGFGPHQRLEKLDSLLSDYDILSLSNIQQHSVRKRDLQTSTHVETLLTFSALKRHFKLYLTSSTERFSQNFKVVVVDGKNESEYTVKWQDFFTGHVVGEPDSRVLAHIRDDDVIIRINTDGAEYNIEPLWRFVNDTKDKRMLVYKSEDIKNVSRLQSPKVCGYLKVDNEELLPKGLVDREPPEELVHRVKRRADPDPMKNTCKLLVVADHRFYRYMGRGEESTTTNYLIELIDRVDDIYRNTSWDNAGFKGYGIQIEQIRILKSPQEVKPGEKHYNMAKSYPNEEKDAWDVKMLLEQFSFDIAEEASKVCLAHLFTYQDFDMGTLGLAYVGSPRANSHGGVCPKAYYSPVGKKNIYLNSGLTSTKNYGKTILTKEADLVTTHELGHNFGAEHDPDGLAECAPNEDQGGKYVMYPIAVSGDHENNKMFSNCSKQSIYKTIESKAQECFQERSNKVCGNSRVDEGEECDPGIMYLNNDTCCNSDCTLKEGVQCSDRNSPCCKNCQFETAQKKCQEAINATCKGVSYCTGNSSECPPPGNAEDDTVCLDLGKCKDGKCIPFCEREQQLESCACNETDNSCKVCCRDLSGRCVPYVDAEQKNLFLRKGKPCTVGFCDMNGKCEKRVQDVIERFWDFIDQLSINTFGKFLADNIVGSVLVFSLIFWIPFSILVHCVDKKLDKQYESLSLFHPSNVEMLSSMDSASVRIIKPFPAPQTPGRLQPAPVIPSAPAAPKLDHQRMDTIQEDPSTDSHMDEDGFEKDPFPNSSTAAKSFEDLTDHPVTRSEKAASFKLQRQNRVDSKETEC

[3] = target: T3, Matrix metalloproteinase-9 (Homo sapiens, UniProt P14780); assay: Inhibition of recombinant human Matrix metalloprotease-9
T3 sequence (P14780 whole entry): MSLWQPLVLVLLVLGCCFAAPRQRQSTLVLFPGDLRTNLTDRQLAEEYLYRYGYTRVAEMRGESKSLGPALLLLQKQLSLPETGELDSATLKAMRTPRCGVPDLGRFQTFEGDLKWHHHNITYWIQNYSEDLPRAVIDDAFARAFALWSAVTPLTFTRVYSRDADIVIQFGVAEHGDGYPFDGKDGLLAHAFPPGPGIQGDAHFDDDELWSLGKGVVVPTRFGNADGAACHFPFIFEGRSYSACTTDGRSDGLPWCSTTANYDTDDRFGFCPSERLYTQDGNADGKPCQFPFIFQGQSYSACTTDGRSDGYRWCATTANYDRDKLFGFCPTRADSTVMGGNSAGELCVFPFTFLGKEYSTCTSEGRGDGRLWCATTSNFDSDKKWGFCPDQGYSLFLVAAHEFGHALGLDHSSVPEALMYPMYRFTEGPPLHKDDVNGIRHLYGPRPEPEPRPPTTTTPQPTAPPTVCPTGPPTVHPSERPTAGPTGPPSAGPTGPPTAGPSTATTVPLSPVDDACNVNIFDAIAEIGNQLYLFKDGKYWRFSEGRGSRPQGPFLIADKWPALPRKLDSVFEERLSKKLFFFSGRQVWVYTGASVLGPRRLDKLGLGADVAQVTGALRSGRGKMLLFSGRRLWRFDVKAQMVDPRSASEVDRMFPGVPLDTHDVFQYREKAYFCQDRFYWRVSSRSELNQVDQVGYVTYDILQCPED

Interstitial collagenase [4] = target: T4, Interstitial collagenase (Homo sapiens, UniProt P03956); assay: Inhibition of recombinant human Matrix metalloprotease-1
T4 sequence (P03956 whole entry): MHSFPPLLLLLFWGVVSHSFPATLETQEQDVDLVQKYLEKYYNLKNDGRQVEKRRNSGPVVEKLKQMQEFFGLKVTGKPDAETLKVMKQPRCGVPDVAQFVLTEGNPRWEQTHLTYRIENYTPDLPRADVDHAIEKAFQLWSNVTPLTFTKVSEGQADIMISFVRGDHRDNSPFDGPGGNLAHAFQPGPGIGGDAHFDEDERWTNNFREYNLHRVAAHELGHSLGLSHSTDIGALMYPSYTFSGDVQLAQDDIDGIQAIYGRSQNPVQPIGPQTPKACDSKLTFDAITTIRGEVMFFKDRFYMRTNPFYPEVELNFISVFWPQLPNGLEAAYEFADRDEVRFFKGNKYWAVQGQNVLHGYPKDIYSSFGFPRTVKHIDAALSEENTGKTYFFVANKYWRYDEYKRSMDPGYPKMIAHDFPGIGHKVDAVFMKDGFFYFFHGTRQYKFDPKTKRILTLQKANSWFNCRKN

[5] = target: T3, Matrix metalloproteinase-9; conditions: 1000 nM
Description: Inhibition of recombinant human Matrix metalloprotease-9 at 1000 nM

Stromelysin-1 [6] = target: T1, Stromelysin-1; assay: Inhibition of recombinant human Matrix metalloprotease-3 at 1000 nM
Target sequence in this assay (P08254 100-477 limits assumed): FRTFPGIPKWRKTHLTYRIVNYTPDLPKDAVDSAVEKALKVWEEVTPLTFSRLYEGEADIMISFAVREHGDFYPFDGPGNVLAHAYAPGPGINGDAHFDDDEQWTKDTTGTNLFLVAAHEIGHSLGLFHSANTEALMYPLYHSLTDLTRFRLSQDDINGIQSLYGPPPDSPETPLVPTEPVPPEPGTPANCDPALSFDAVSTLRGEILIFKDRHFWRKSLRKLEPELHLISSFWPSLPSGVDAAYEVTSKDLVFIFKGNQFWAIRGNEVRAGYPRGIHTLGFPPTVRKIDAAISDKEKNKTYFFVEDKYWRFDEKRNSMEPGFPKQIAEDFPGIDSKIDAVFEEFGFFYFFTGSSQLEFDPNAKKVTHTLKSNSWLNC

[7] = target: T5, Interstitial collagenase (Homo sapiens) (UniProt P03956); assay: Inhibition of recombinant human matrix metalloprotease-1 at 1000 nM
T5 sequence (whole entry): T4 sequence (P03956 whole entry)

Interstitial collagenase [8] = target: T4, Interstitial collagenase; assay: Inhibition of recombinant human matrix metalloprotease-1
[9] = target: T5, Interstitial collagenase (Homo sapiens); assay: Inhibition of recombinant human Matrix metalloprotease-1 at 1000 nM
[10] = target: T2, Disintegrin and metalloproteinase domain-containing protein 17; conditions: 1000 nM
Description: Inhibition of recombinant human TACE at 1000 nM

SMILES	Ki (Stromelysin-1 [1]) [nM]	Ki [2] [nM]	Ki [3] [nM]	Ki (Interstitial collagenase [4]) [nM]	inhibition [5] [%]	inhibition (Stromelysin-1 [6]) [%]	inhibition [7] [%]	Ki (Interstitial collagenase [8]) [nM]	inhibition [9] [%]	inhibition [10] [%]
CCOP(=O)(N[C@H](CC(C)C)C(=O)NO)c1ccc(OC)cc1 (stereo partly specified)	69.8	5.06	165	196	–	–	–	–	–	–
CCOP(=O)(N[C@@H](CCC(=O)NCCc1ccccc1)C(=O)NO)c1ccc(OC)cc1 (stereo partly specified)	–	10	–	–	24	47	27	–	–	–
CCOP(=O)(N[C@@H](CC(C)C)C(=O)NO)c1ccc(OC)cc1 (stereo partly specified)	–	76.4	–	–	17	17	10	–	–	–
CCOP(=O)(N[C@H](CCC(=O)NCCc1ccccc1)C(=O)NO)c1ccc(OC)cc1 (stereo partly specified)	7.29	27.6	23.7	–	–	–	–	40.4	–	–
CCOP(=O)(c1ccc(OC)cc1)N1Cc2ccccc2C[C@@H]1C(=O)NO (single isomer, unassigned)	–	7.15	–	–	–	–	–	–	–	–
CCOP(=O)(c1ccc(OC)cc1)N1Cc2ccccc2C[C@H]1C(=O)NO (single isomer, unassigned)	–	–	–	–	18	9	–	–	26	41
